{"source": "paper PMC10035370", "about": "“Targeting Tumor Angiogenesis with the Selective VEGFR-3 Inhibitor EVT801 in Combination with Cancer Immunotherapy” (Cancer Research Communications, 2022)", "key": {"[1]": {"test_system": "BNL-R3 tumors", "assay": "VEGFR3 expressing BNL tumor model (BNL-R3)", "assay_type": "in vivo, mice", "method": "A total number of 60 female BALB/c mice were injected subcutaneously on the flank with 2 x 10^6 cells in 250 μL PBS buffer/growth factor reduced Matrigel®. Mice were then kept in a post-operative cabinet at 28 °C until complete recovery. Assuming an ovoid form, tumor volume in mm3 was calculated using digital callipers according to the following formula: V = 0.52 x (width)² x length. On day 7, mice were randomized into 4 groups of 11 mice and 1 group with 16 mice, according to mean tumor volume via cage equalizer software. Subsequently, tumor volume was measured on days 11, 13, 15, 18, 19 and 21 following tumor cell injection. The selected groups received vehicle or EVT801 orally in a volume of 10 mL/kg. Mice body weight was measured daily before dosing. On the day of termination, mice were anaesthetized to facilitate 500 μL blood withdrawal by puncture of the jugular vein. Three mice per group and per time point (i.e., 0.5, 2, 4 and 24 h after the last dosing) were allocated for pharmacokinetic study. Spleens of 3 mice per group were collected, and immune cell populations were separated from dissociated splenocytes via MACS, and subjected to flow cytometry analysis."}, "[2]": {"molecular_target": "T1, VEGFR-2 (Homo sapiens, UniProt P35968)", "assay": "Viability of Ba/F3 cells dependent on VEGFR-2", "assay_type": "cell-based", "parameters": "fusion proteins consisting of constructs for IL-3 independent survival and either VEGFR-2 or VEGFR-3 kinase domains; expressed in transfected cells; host or cells: Ba/F3 (stably transduced)", "method": "(§1) Ba/F3 cells were transduced and selected to stably express fusion proteins consisting of constructs for IL-3 independent survival and either VEGFR-2 or VEGFR-3 kinase domains or without the kinase domain. Proliferation and survival of cell lines was dependent on expression of the transcript. Cells in logarithmic-phase growth were harvested and 5 x 10^3 cells were distributed into each well of a 384-well plate in 50 µL of medium. Then, 50 nL of EVT801, SAR401849 or their vehicle solvent were added to appropriate wells. After 48 h, viability was determined by addition of 10 µL CellTiterGlo reagent (Promega). Luminescence was determined as relative light units (RLU) in counts per second."}, "[3]": {"molecular_target": "T1, VEGFR-2", "assay": "Cellular autophosphorylation assay, HEK293 cells transiently expressing VEGFR-2", "assay_type": "cell-based", "parameters": "expressed in transfected cells; host or cells: HEK293T", "settings": "read-out: IC50 in cellular assays, VEGFR-2 autophosphorylation", "method": "(§2) Transfection of HEK293T cells and Ba/F3 cells with VEGFR-1-Flag, VEGFR-2-Flag or VEGFR-3-Flag expression constructs was performed using Fugene-6 (Roche) as per manufacturer’s protocol. Briefly, Fugene-6 was pre-incubated with Opti-Mem (Gibco) before adding DNA. After 24 h, media was replaced with serum-free culture media containing 0.2 % BSA. On the next day, cells were incubated for 1 h in 1 mM orthovanadate, harvested, dissociated and distributed at 4 x 10^5 cells in 5 mL for HEK-VEGFR-1 and HEK-VEGFR-3, and 5 x 10^4 cells per 5 mL for HEK VEGFR-2 in the presence of EVT801 or SAR401849. After 30 min, the reaction was stopped by the addition of cold PBS supplemented with 1 mM orthovanadate. Cells were then lysed with 150 μl of RIPA buffer for 15 min at 4°C, then centrifuged for 10 min at 10,000 g. Supernatants (75 μl) were distributed in duplicate on 96 well plates that were precoated with the anti-flag, and left for 1 h at room temperature. After 3 washes, the anti-phosphotyrosine conjugated to the HRP was added and incubated for 1 h at room temperature. Wells were then washed 3 times with TBS buffer containing 0.5 % Tween-20 and 2 mM MgCl2. The reaction was stopped with 50 μL of 2 N H2SO4, and the signal was read with Envision at the wavelengths of 485 nm and 530 nm."}, "[4]": {"assay": "Pharmacokinetics in rats", "assay_type": "in vivo", "settings": "rat, plasma; Sprague-Dawley rats, 10 mg/kg; read-out: T1/2 in plasma (converted)", "method": "Plasma samples and tumor homogenates were mixed with the precipitant solution (acetonitrile containing internal standard). The supernatant (180 µL) was transferred in a 96-well plate and 5 µL were injected. EVT801 and its main metabolite were quantified by LC-MS/MS following standard conditions."}, "[5]": {"molecular_target": "T2, VEGFR-3 (Homo sapiens, UniProt P35916)", "assay": "Cellular autophosphorylation assay, HEK293 cells transiently expressing VEGFR-3", "assay_type": "cell-based", "parameters": "expressed in transfected cells; host or cells: HEK293T", "settings": "read-out: IC50 in cellular assays, VEGFR-3 autophosphorylation", "method": "as §2"}, "[6]": {"test_system": "NCI-H1703 cells", "assay": "NCI-H1703 viability (ATP reduction)", "assay_type": "cell-based", "settings": "Homo sapiens, in vitro", "method": "NCI-H1703 were seeded in 96-well plates coated with 0.3 % gelatin (5 x 10^3 cells per well) and were incubated in RPMI 0.1 % FCS with VEGF-C (300 ng/mL) or VEGF-D (300 ng/mL) in the absence or presence of increasing doses of EVT801. After 5 days, viable cells were quantified with the cell Titer-glo luminescent cell viability assay (Promega) as previously described (1)."}, "[7]": {"molecular_target": "T2, VEGFR-3", "assay": "Viability of Ba/F3 cells dependent on VEGFR-3", "assay_type": "cell-based", "parameters": "fusion proteins consisting of constructs for IL-3 independent survival and either VEGFR-2 or VEGFR-3 kinase domains; expressed in transfected cells; host or cells: Ba/F3 (stably transduced)", "method": "as §1"}, "[8]": {"test_system": "ERK1/2 phosphorylation", "assay": "VEGF-C-induced ERK1/2 phosphorylation in hLMVEC", "assay_type": "cell-based", "settings": "Homo sapiens, read-out: IC50, inhibition of VEGF-C-induced ERK1/2 phosphorylation", "method": "hLMVECs were plated in 6-well tissue culture plates at a density of 2 x 10^5 cells for 48 h. Cells were then serum deprived for 2 h and either stimulated or mock stimulated for 10 min with VEGFC (500 ng/mL) in the presence or absence of EVT801. Then, cells were lysed and subjected to phospho-MAPK array or to phospho-ERK ELISA according to manufacturer’s instructions."}}, "data": [{"smiles": "CCn1c(N)c(-c2ncc[nH]2)c(=O)c2ccc(C#C[C@@](C)(O)COC)nc21", "note": "[EVT801]", "values": [{"measurement": "T/C ratio, tumor growth", "setting": "[1]; 10 mg/kg twice per day", "value": 31, "unit": "%"}, {"measurement": "decrease of number of vessels", "setting": "[1]; 10 mg/kg twice per day", "value": 60, "unit": "%"}, {"measurement": "decrease of total vessel surface", "setting": "[1]; 10 mg/kg twice per day", "value": 35, "unit": "%"}, {"measurement": "T/C ratio, tumor growth", "setting": "[1]; 30 mg/kg twice per day", "value": 10, "unit": "%"}, {"measurement": "decrease of number of vessels", "setting": "[1]; 30 mg/kg twice per day", "value": 83, "unit": "%"}, {"measurement": "decrease of total vessel surface", "setting": "[1]; 30 mg/kg twice per day", "value": 29, "unit": "%"}, {"measurement": "tumor hypoxia", "setting": "[1]; both doses, 10 and 30 mg/kg twice per day", "value": "decreased hypoxia"}, {"measurement": "infiltration of CD3+ cells in the tumor", "setting": "[1]; endpoint", "value": "increased"}, {"measurement": "IC50", "setting": "[2]", "value": 248, "unit": "nM"}, {"measurement": "IC50", "setting": "[3]", "value": 260, "unit": "nM"}, {"measurement": "half-life", "setting": "[4]", "value": 2.4, "unit": "h"}, {"measurement": "IC50", "setting": "[5]", "value": 39, "unit": "nM"}, {"measurement": "IC50", "setting": "[6]", "value": 109, "unit": "nM"}, {"measurement": "IC50", "setting": "[7]", "value": 24, "unit": "nM"}, {"measurement": "IC50", "setting": "[8]", "value": 13, "unit": "nM"}]}]}
